Publication PMC13252604, “First Generation Proteolysis Targeting Chimeras (PROTACs) for the Treatment of Progeria” (Advanced Science, 2026)

Target: T1, progerin (Mus musculus, UniProt P48678, DEL608-657)
T1 construct: endogenous in cells; host or cells: immortalized (SV40-LT) fibroblasts from Lmna G609G/G609G mice
T1 sequence (P48678 with tags, fused parts or gaps DEL608-657 limits assumed): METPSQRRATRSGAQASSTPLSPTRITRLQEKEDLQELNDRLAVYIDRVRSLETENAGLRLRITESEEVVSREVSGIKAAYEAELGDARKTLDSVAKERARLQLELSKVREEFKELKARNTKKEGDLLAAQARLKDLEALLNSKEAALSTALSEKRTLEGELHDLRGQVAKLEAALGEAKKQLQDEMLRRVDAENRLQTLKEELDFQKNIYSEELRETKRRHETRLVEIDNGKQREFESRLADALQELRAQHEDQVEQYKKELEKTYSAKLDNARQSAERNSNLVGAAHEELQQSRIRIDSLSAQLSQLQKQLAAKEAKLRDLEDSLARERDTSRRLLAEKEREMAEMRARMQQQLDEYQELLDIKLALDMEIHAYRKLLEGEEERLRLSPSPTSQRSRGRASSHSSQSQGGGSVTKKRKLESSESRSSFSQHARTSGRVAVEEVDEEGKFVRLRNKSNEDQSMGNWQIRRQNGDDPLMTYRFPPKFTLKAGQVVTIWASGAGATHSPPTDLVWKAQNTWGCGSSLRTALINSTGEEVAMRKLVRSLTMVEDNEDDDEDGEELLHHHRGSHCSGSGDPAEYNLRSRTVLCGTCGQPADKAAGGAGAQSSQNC
Assay: Progerin degradation, immunoblot in Lmna^G609G/G609G fibroblasts
Type: cell-based
Conditions: 8 h; for progerin levels (immunoblot quantification): Lmna^G609G/G609G fibroblasts, 5 µM, vs vehicle
Procedure: The ability of compounds 2‐6 to degrade progerin was evaluated in Lmna^G609G/G609G fibroblasts, derived from the progeria mouse model that most closely replicates the human disease phenotype. Lamin A/C antibody was used for immunodetection due to its prevalent use in this context, enabling simultaneous visualization of both lamins and progerin [15].
FIGURE 2 (A) Representative cropped immunoblots and quantification of progerin from Lmna^G609G/G609G fibroblasts. Cells were incubated with vehicle or indicated compound at 5 µM for 8 h. MW, molecular weight (in kDa) markers. (B, C) Concentration and time‐dependency of the reduction of progerin levels induced by compounds 2 and 9. Graphs show quantification of progerin in Lmna^G609G/G609G fibroblasts (immunoblots are shown in Supporting Figure S1). Cells were incubated with vehicle or the indicated compound concentration for 8 h. For time‐course experiments, cells were incubated with vehicle or indicated compound at 5 µM. Bar graphs show mean±sem of 3 independent experiments performed in duplicate. Data were analysed using one‐way ANOVA followed by Dunnett's post–hoc test comparing all groups to the vehicle; ^*, p < 0.05. […]
4. Cell lines and culture.
Progeroid mouse fibroblasts, kindly donated by Prof. Carlos López Otín (Oviedo University, Spain), were isolated from LmnaG609G/G609G mice[19] and wild-type (WT) littermates and immortalized by retroviral transduction with SV40 large T antigen (SV40-LT). Since LmnaG609G/G609G mouse represents the most suitable and widely accepted model of HGPS, as it most faithfully recapitulates the molecular and phenotypic features of the human disease, its use in this study is fully justified. Moreover, although this cell […]
cells have been extensively validated by additional independent studies.[15, 65, 66] […]
experiments, nor does it affect the conclusions presented in our study.
Mouse fibroblasts were grown in Dulbecco’s modified eagle medium (DMEM, Gibco) supplemented with 10% heat inactivated fetal bovine serum (FBS, Gibco), 50 U/mL penicillin, and 50 μg/mL streptomycin (Invitrogen). Human progeroid HGADFN167 LmnaG608G/G608G (G608G) or or healthy HGADFN168 Lmna+/+ (WT) fibroblasts, were obtained from The Progeria Research Foundation (RRIDs CVCL_1Y92 and CVCL_1Y93, respectively) and cultured in DMEM with 20% heat inactivated FBS, 50 U/mL penicillin and 50 μg/mL streptomycin. All cells were incubated in a humidified atmosphere at 37 °C in the presence of 5% CO2 and were confirmed to be free of mycoplasma contamination. […]
Measurements were performed in triplicate, and each experiment was repeated at least three times. The viability values were calculated from the percentage of viable cells with respect to 100% viability of the vehicle-treated cells.
6. Immunoblot and immunocytofluorescence analysis.
Mouse or human progeroid cells were seeded at density of […] or 5 x 10^4 cells respectively on 12-well plates and incubated for 24 h in DMEM medium. For proteosome-dependency assays, cells were pre-treated either with the proteasome inhibitor (S)-MG132 (20 µM) or with the NEDD8-activating enzyme inhibitor MLN4924 (5 µM) for 2 h prior to […]
compound exposure. Then, cells were incubated with compound of interest or DMSO for the appropriate time and lysed with cold laemmli buffer (50 mM Tris-HCl pH 7.4, 150 mM NaCl, 1% Igepal) with a mixture of protease and phosphatase inhibitors (1 mM PMSF, 10 mM NaF, 0.3 mg/mL CalyculinA, 1 mM sodium orthovanadate, 10 mM β-glycerol-phosphate; all from Sigma-Aldrich and complete protease inhibitor cocktail, from Roche). Proteins were denatured at 95 ᵒC for 5 min and the lysates were immediately used or stored at -20 ᵒC until use. Samples were analysed by electrophoresis in polyacrylamide gels (All Kd SDS-PAGE, BioRad) and the proteins transferred to nitrocellulose membranes (GE Healthcare, Amersham). After 1 h of incubation in blocking buffer [20 mM Tris pH 7.6, 150 mM NaCl and 0.1% Tween-20 (TBS-T) with […]

Structure (SMILES)	progerin levels (immunoblot quantification)	progerin-reducing activity in the presence of proteasome inhibitor MG132 (compound 5 µM, pre-treated with (S)-MG132 20 µM 2 h)	progerin-reducing activity in the presence of neddylation inhibitor MLN4924 (compound 5 µM, pre-treated with MLN4924 5 µM 2 h)
CC1(C)Oc2cc3oc(=O)ccc3cc2C[C@@H]1OC(=O)CCCCCNc1cccc2c1C(=O)N(C1CCC(=O)NC1=O)C2=O (stereo partly shown) [compound 2]	most effective in reducing progerin levels	abolished	abolished
CC1(C)Oc2cc3oc(=O)ccc3cc2C[C@@H]1OC(=O)CCCCC(=O)Oc1ccc2c(c1)CCCN2C(=O)CCl [compound 12]	failed to reduce progerin levels		
